From US20140308317A1, “Polymeric Compounds And Methods Of Making And Using The Same” (CELLCEUTIX CORPORATION, priority 2012, published 2014)
≈ marks a conversion by molar mass, not a printed value.

Tests used:
NIH/3T3 cells, CRL-1658 = assay: Cytotoxicity colorimetric (tetrazolium) assay; format: cell-based, mouse; conditions: NIH/3T3 cells; one hour with compound in serum-free media
Procedure: (§1) Cytotoxicity of the compounds was evaluated in a colorimetric assay using a transformed human liver cell line (HepG2, HB-8065) and an embryonic mouse cell line (NIH/3T3 cells, CRL-1658). This assay measures the bioreduction of a novel tetrazolium compound to a soluble formazan product by viable cells. HepG2 cells were seeded in 96 well plates at 2×10^4 cells/well in MEM medium with 10% fetal bovine serum (FBS) 24 hours prior to use. NIH/3T3 cells were seeded in 96 well plates at 2×10^4 cells/well in DMEM medium with 10% bovine calf serum (BCS) 24 hours prior to use. Cell monolayers were rinsed in serum-free media and incubated for one hour with compounds in serum-free media. After incubation, the media is replaced with serum supplemented media and live cells were measured using the Cell Titer 96 Aqueous […] Assay kit (Promega, Madison, Wis.). EC50 values were determined using a four parameter logistic equation: Y=Bottom+(Top-Bottom)/(1+10̂((LogEC50−X)*HillSlope)).
(§2) Actual results from a representative cytotoxicity assay are shown below in Table 2. Data is expressed as EC50 in μg/mL.

[1] = system: Klebsiella pneumoniae ATCC 13883; assay: Minimum Inhibitory Concentration (MIC), modified microbroth dilution; format: cell-based; conditions: K. pneumoniae (13883), overnight incubation (18 hours); for MIC50: Klebsiella pneumoniae, ATCC13883, read-out: MIC50 K. Pnuemnoiae
[2] = system: Pseudomonas aeruginosa ATCC 10145; assay: as above; format: cell-based; conditions: P. aeruginosa (10145), overnight incubation (18 hours); for MIC50: Pseudomonas aeruginosa, ATCC10145, read-out: MIC50 P. Aeruginosa
HepG2, HB-8065 = assay: Cytotoxicity colorimetric (tetrazolium) assay; format: cell-based, human; conditions: HepG2 cells; one hour with compound in serum-free media
Procedure: as §1, §2

E. Coli ATCC 25922 = assay: Minimum Inhibitory Concentration (MIC), modified microbroth dilution; format: cell-based; conditions: E. coli (25922), overnight incubation (18 hours); for MIC50: Escherichia coli, ATCC25922, read-out: MIC50 E. coli
[3] = system: Enterococcus faecalis ATCC 29212; assay: as above; format: cell-based; conditions: E. faecalis (29212), overnight incubation (18 hours); for MIC50: Enterococcus faecalis, ATCC29212, read-out: MIC50 E. faecalis
[4] = system: Staphylococcus aureus ATCC 27660; assay: as above; format: cell-based; conditions: S. aureus (27660), overnight incubation (18 hours); for MIC50: Staphylococcus aureus, ATCC27660, read-out: MIC50 S. aureus
[5] = Cytotoxicity colorimetric (tetrazolium) assay; format: cell-based, mouse; conditions: mouse, NIH/3T3 cells (CRL-1658), NIH/3T3 cells; one hour with compound in serum-free media
Procedure: as §1, §2

[6] = Cytotoxicity colorimetric (tetrazolium) assay; format: cell-based, human; conditions: human, HepG2 cells (HB-8065), HepG2 cells; one hour with compound in serum-free media
Procedure: as §1, §2

SMILES | EC50 NIH 3T3 (cytotoxicity) (NIH/3T3 cells, CRL-1658) [µg/mL] | MIC50 K. Pnuemnoiae [1] [µg/mL] | MIC50 P. Aeruginosa [2] [µg/mL] | EC50 HepG2 (cytotoxicity) (HepG2, HB-8065) [µg/mL] | MIC50 E. coli (E. Coli ATCC 25922) [µg/mL] | MIC50 E. faecalis [3] [µg/mL] | MIC50 S. aureus [4] [µg/mL] | EC50 at 1 h [5] [µg/mL] | MIC50 [1] [µg/mL] | MIC50 [2] [µg/mL] | EC50 at 1 h [6] [µg/mL] | MIC50 (E. Coli ATCC 25922) [µg/mL] | MIC50 [3] [µg/mL] | MIC50 [4] [µg/mL]
N=C(N)NCCCc1cccc(-c2cc(-c3cccc(CCCNC(=N)N)c3)cc(C(F)(F)F)c2)c1 [Compound 114] | 83.5 (≈ 168 µM) | 3.13 (≈ 6.3 µM) | 12.5 (≈ 25.2 µM) | 60.6 (≈ 122 µM) | 3.13 (≈ 6.3 µM) | 1.56 (≈ 3.14 µM) | 0.78 (≈ 1.57 µM) | – | – | – | – | – | – | –
NCCC#Cc1cc(-c2cc(OCCCN)cc(-c3cc(C#CCCN)cc(C(F)(F)F)c3)c2)cc(C(F)(F)F)c1 [Compound 122] | 14.5 (≈ 25.3 µM) | 3.13 (≈ 5.46 µM) | 12.5 (≈ 21.8 µM) | – | 3.13 (≈ 5.46 µM) | 1.56 (≈ 2.72 µM) | 1.56 (≈ 2.72 µM) | – | – | – | – | – | – | –
NCC#Cc1cc(C#CCN)cc(-c2cc(-c3cc(C#CCN)cc(C#CCN)c3)cc(C(F)(F)F)c2)c1 [Compound 125] | 26.1 (≈ 51.1 µM) | 25 (≈ 49 µM) | 12.5 (≈ 24.5 µM) | – | 12.5 (≈ 24.5 µM) | 12.5 (≈ 24.5 µM) | 12.5 (≈ 24.5 µM) | – | – | – | – | – | – | –
N=C(N)NCC#Cc1cc(C#CCNC(=N)N)cc(-c2cc(-c3cc(C#CCNC(=N)N)cc(C#CCNC(=N)N)c3)cc(C(F)(F)F)c2)c1 [Compound 126] | 59.7 (≈ 88 µM) | 6.25 (≈ 9.21 µM) | 6.25 (≈ 9.21 µM) | – | 6.25 (≈ 9.21 µM) | 1.56 (≈ 2.3 µM) | 1.56 (≈ 2.3 µM) | – | – | – | – | – | – | –
O=C(Nc1ccc(-c2ccnc(N3CCNCC3)c2)cc1F)Nc1ccc(-c2ccnc(N3CCNCC3)c2)cc1F [Compound 142] | – | 25 (≈ 43.8 µM) | 25 (≈ 43.8 µM) | 105 (≈ 184 µM) | 12.5 (≈ 21.9 µM) | – | 100 (≈ 175 µM) | – | – | – | – | – | – | –
NCCCOc1cc(OCCCN)cc(-c2ccc(F)c(-c3cc(-c4cc(OCCCN)cc(OCCCN)c4)ccc3F)c2)c1 [Compound 145] | 146.3 (≈ 230 µM) | 1.56 to 3.13 | 12.5 (≈ 19.7 µM) | 302 (≈ 476 µM) | 1.56 to 3.13 | 0.78 to 1.56 | 1.56 (≈ 2.46 µM) | – | – | – | – | – | – | –
NCCCOc1cc(OCCCN)cc(-c2cc(-c3cc(-c4cc(OCCCN)cc(OCCCN)c4)cc(C(F)(F)F)c3)cc(C(F)(F)F)c2)c1 [Compound 146] | 35.82 (≈ 48.7 µM) | 1.56 to 3.13 | 6.25 (≈ 8.51 µM) | 58.6 (≈ 79.8 µM) | 1.56 to 3.13 | 0.78 to 1.56 | 1.56 (≈ 2.12 µM) | – | – | – | – | – | – | –
Cc1cc(-c2cc(OCCCN)cc(OCCCN)c2)cc(-c2cc(C)cc(-c3cc(OCCCN)cc(OCCCN)c3)c2)c1 [Compound 147] | 50.94 (≈ 81.3 µM) | 1.56 (≈ 2.49 µM) | 6.25 (≈ 9.97 µM) | 164 (≈ 262 µM) | 1.56 (≈ 2.49 µM) | 0.78 (≈ 1.24 µM) | 0.39 (≈ 0.622 µM) | – | – | – | – | – | – | –
N=C(N)NCCc1ccc(C#Cc2cccc(C#Cc3ccc(CCNC(=N)N)c(CCNC(=N)N)c3)c2)cc1CCNC(=N)N [Compound 195] | – | – | – | – | – | – | – | 95.8 (≈ 155 µM) | 6.25 (≈ 10.1 µM) | 12.5 (≈ 20.2 µM) | 163 (≈ 263 µM) | 3.13 (≈ 5.06 µM) | 1.56 (≈ 2.52 µM) | 0.78 (≈ 1.26 µM)
NCCc1cc(C#Cc2ccc(C#Cc3cc(CCN)cc(CCN)c3)cc2)cc(CCN)c1 [Compound 198] | – | – | – | – | – | – | – | 282 (≈ 626 µM) | 50 (≈ 111 µM) | 50 (≈ 111 µM) | 185 (≈ 411 µM) | 50 (≈ 111 µM) | 50 (≈ 111 µM) | 25 (≈ 55.5 µM)
N=C(N)NCCc1cc(C#Cc2ccc(C#Cc3cc(CCNC(=N)N)cc(CCNC(=N)N)c3)cc2)cc(CCNC(=N)N)c1 [Compound 199] | – | – | – | – | – | – | – | 116 (≈ 188 µM) | 1.56 (≈ 2.52 µM) | 12.5 (≈ 20.2 µM) | 135 (≈ 218 µM) | 1.56 (≈ 2.52 µM) | 12.5 (≈ 20.2 µM) | 0.78 (≈ 1.26 µM)
